Laboratory results: publication PMC6812009, “Covalent Aurora A regulation by the metabolic integrator coenzyme A” (Redox Biology, 2019)
Where two headings read alike, the source gives them in different places.

How the values were obtained:
[1] = biological target: T1, Aurora A (inactive), unphosphorylated (PP1-treated) (Homo sapiens, UniProt O14965); assay: Lanthascreen Eu Kinase FRET binding assay
T1 construct: For enzyme and DSF assays, full-length human Aurora A and Aurora B and 1–43 TPX2 were produced; made in house; host or cells: E. coli
T1 sequence (O14965 1-403): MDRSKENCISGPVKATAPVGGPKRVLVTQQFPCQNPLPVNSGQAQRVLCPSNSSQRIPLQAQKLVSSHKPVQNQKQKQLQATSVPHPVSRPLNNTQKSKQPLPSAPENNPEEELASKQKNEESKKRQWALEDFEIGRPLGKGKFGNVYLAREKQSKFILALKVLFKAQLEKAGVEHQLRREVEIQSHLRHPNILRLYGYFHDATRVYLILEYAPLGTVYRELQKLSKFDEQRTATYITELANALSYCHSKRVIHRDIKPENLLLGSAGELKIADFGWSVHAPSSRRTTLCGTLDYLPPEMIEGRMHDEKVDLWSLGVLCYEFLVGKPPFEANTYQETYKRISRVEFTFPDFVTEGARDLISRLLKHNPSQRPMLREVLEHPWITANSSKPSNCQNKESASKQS
Experimental: (§1) A Lanthascreen Eu Kinase FRET Binding Assay (Invitrogen) was employed to determine IC50 values for the interaction of Aurora A with CoA, dpCoA, ATP, and ADP. […] Recombinant Aurora A was incubated with Europium-conjugated anti-histidine tag antibody and an Alexa Fluor 647-labelled tracer, which binds to the ATP binding pocket of Aurora A. The close proximity of the anti-histidine (epitope-tag) antibody and the tracer results in a high degree of FRET (fluorescence resonance energy transfer) from the europium donor fluorophore to the Alexa Fluor 647 acceptor fluorophore. ATP-competitive inhibitors, such as CoA, displace the tracer from the active site, causing a loss of FRET signal. Assay set-up was performed as described by the manufacturer. Briefly, the time-resolved fluorescence resonance energy transfer assay (TR-FRET) was performed in black, low volume 384 well plates (Corning). Each well contained 5 nM kinase, 2 nM Eu-anti-His antibody and 10 nM kinase tracer 236 in kinase buffer A (50 mM Hepes pH 7.5, 10 mM MgCl2, 1 mM […], 0.01% (v/v) Brij-35), varying amounts of CoA, dpCoA, ATP, and ADP. The reaction mix was incubated for 1h at room temperature. The signal was measured at 665/620 nm emission ratio using BMG LABTECH plate reader (PHERAstar). All assays were performed using duplicates. The 11-point response curves were generated using GraphPad Prism software from the inhibition data generated.

[2] = biological target: T2, Aurora A (active), T288 phosphorylated (Homo sapiens, UniProt O14965); assay: Lanthascreen Eu Kinase FRET binding assay
T2 construct: For enzyme and DSF assays, full-length human Aurora A and Aurora B and 1–43 TPX2 were produced; made in house; host or cells: E. coli
T2 sequence (O14965 1-403): T1 sequence (O14965 1-403)
Experimental: as §1

AMPK = assay: Kinase profiling screen (radioactive filter-binding assay); type: biochemical, human; settings: 100 μM compound, 50 μM ATP
Experimental: (§2) Profiling of 117 protein kinases with CoA, dpCoA and ADP was carried out at the International Centre for Protein Kinase Profiling at the University of Dundee. Each compound was tested in vitro, in duplicate, at 100 μM final concentration using recombinant kinases, model substrates and optimal concentrations of ATP. Bacterially expressed full-length His-Aurora A was used to determine the IC50 value for CoA (in the presence or absence of DTT), dpCoA, ADP and desulfo-CoA. The assay was performed in the presence of 5 μM competing ATP. To examine whether the inhibitory effect of CoA on Aurora A is modulated by TPX2, IC50 values for CoA were also generated in the presence and absence of 1 μg TPX2 (residues 1–43) fragment.

ROCK 2 = assay: as above; type: biochemical, human; settings: 100 μM compound, 20 μM ATP
Experimental: as §2

CAMKK = assay: as above; type: biochemical, human; settings: 100 μM compound, 20 μM ATP
Experimental: as §2

EPH-B4 = biological target: T3, EPH-B4 (Homo sapiens, UniProt P54760); assay: as above; type: biochemical; settings: 100 μM compound, 50 μM ATP; read-out: Kinase activity, % of activity in the absence of inhibitor
T3 sequence (P54760 16-987): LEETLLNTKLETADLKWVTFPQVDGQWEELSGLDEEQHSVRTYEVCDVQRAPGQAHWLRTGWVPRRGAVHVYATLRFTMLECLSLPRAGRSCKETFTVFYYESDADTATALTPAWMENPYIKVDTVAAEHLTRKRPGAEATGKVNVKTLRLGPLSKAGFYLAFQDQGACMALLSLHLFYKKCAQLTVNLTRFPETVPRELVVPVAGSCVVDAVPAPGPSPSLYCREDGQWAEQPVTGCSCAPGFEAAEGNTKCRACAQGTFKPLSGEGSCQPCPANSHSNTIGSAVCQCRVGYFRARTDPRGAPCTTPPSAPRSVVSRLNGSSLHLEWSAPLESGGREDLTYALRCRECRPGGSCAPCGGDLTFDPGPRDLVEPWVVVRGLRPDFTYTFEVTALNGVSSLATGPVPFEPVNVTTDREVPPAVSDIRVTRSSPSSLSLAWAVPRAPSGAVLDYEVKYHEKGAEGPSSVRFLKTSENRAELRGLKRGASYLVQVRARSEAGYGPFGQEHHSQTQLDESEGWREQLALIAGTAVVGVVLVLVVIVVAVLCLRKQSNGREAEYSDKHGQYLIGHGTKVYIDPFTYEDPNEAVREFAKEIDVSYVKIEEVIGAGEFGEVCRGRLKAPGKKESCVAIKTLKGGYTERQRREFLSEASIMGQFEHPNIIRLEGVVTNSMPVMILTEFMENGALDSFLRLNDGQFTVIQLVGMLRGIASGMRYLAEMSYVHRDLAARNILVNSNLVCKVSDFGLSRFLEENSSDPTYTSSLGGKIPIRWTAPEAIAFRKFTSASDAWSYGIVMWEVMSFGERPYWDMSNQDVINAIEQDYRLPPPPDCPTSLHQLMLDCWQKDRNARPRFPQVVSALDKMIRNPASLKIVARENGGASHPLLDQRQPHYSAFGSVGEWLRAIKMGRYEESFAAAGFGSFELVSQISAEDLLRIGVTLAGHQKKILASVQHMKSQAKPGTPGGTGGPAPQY
How it was run: (§3)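 Across 117 protein kinases, duplicate in vitro measurements were made with CoA, dpCoA and ADP present at 100 μM final. Each reaction used recombinant kinase, a model substrate and an optimal concentration of ATP.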

EF2K = EF2K (Homo sapiens, UniProt O00418); assay: as above; type: biochemical; settings: 100 μM compound, 5 μM ATP; read-out: Kinase activity, % of activity in the absence of inhibitor
How it was run: as §3

[3] = T288 phosphorylated Aurora A, read-out: Aurora A (active) IC50 (μM), binding assay

SMILES | IC50 [1] [µM] | IC50 [2, 3] [nM] | Kinase activity, % of activity in the absence of inhibitor (AMPK) [%] | Kinase activity, % of activity in the absence of inhibitor (ROCK 2) [%] | Kinase activity, % of activity in the absence of inhibitor (CAMKK) [%] | activity at 100 µM (EPH-B4) [%] | activity at 100 µM (EF2K) [%] | IC50 ([2]; read-out: IC50 for the interaction of active Aurora A) [nM]
CC(C)(COP(=O)(O)OP(=O)(O)OC[C@H]1O[C@@H](n2cnc3c(N)ncnc32)[C@H](O)[C@@H]1OP(=O)(O)O)[C@@H](O)C(=O)NCCC(=O)NCCS [CoA, Coenzyme A] | 0.28 | 0.01 | 90.8 | 94.3 | 97.4 | 107 | 67.1 | 
CC(C)(COP(=O)(O)OP(=O)(O)OCC1OC(n2cnc3c(N)ncnc32)C(O)C1O)C(O)C(=O)NCCC(=O)NCCS (stereo not shown) [dpCoA, dephospho-CoA] | > 100 | 0.3 | 75.9 | 96.4 | 71.4 | 62.1 | 103 | 
Nc1ncnc2c1ncn2C1OC(COP(=O)(O)OP(=O)(O)O)C(O)C1O (stereo not shown) [ADP] | 1.3 | 170 | 54.1 | 57.8 | 52.9 | 9.8 | 86.2 | ~177000
